# “And” between values parts separate entries of the source, which are not always exact repeats. Identical values can stand only once.
# How the values were obtained:
# [1] = system: DUSP6 mRNA in HPAC xenograft tumors; test: In vivo PD by DUSP6 qPCR and PK/PD relationship; design: species or system mouse; conditions: for % inhibition of DUSP6 vs control: individual animals
# Description: (§1) Tumor-bearing animals were randomized and assigned into groups (n = 1–10/group). The vehicle at 10 mL/kg or RMC-6236 at indicated doses was administered via oral gavage daily, and animals were treated for 28 days, or up to 90 days if PFS was being assessed. […] For single-dose PKPD study, mice were randomized and assigned into groups (n = 3/dose/time point). A single dose of RMC-6236 was administered orally at either 3, 10, or 25 mg/kg. Blood and tissues, including the tumor, brain, colon, ear skin, and muscle, were harvested at indicated time points. Whole blood was collected in K2EDTA Microtainer tubes, incubated for 5 minutes, and snap-frozen in liquid nitrogen. The tissue was either fixed in 10% formalin or snap-frozen in liquid nitrogen for further analysis.
# (§2) RNA was extracted from at least 20 mg of tissue using an RNeasy Mini Kit (Qiagen, 74104) and a High-Throughput Tissue grinder following the manufacturer's protocol. Reverse transcription was carried out using High-Capacity cDNA Reverse Transcription Kit (ABI, 4368814) according to the manufacturer's protocol. The cDNA product was used for qPCR analysis using TaqMan Gene-Expression Master Mix (ABI, 4369016). TaqMan primer probes specific to DUSP6 (human—Hs00737962_m1, murine—Mm00518185_m1, FAM-MGB) and 18S (RNA18S1; human—Hs99999901_s1, murine—Mm03928990_g1, FAM-MGB, used as an internal control gene) were used to detect the levels from each sample in duplicates using a 10 µL final reaction volume in a 384-well clear optical reaction plate. For qPCR, Ct values of DUSP6 and 18S were obtained for analysis. DUSP6 Ct value was normalized to 18S, and then the mean relative mRNA expression levels of each group were normalized to the vehicle control group. Values were plotted as relative change in mRNA expression compared with vehicle. Means ± SEM were shown.
# (§3) Concentrations of RMC-6236 in tumor or normal tissues and percentage of DUSP6 inhibition as compared with the vehicle control from individual animals were collected and analyzed post a single dose of RMC-6236 ranging from 0.3 to 100 mg/kg (Supplementary Table S6). A 3-parameter sigmoidal exposure–response model was fitted to the data in GraphPad Prism to derive EC50 and EC90 values.
# [2] = system: DUSP6 mRNA in NCI-H441 xenograft tumors; test: In vivo PD by DUSP6 qPCR and PK/PD relationship; design: species or system mouse; conditions: for % inhibition of DUSP6 vs control: NCI-H441 xenograft tumor
# Description: as §1, §2, §3
structure (smiles),measurement,setting,value
CCn1c(-c2cc(N3CCN(C)CC3)cnc2[C@H](C)OC)c2c3cc(ccc31)-c1csc(n1)C[C@H](NC(=O)[C@H]1C[C@@H]1C)C(=O)N1CCC[C@H](N1)C(=O)OCC(C)(C)C2 [RMC-6236],% inhibition of DUSP6 vs control,"[1]; HPAC #3, 50 mg/kg, 4h",99.6% and 99.3%
same,% inhibition of DUSP6 vs control,"[1]; HPAC #3, 50 mg/kg, 8h",99.8% and 99.7%
same,% inhibition of DUSP6 vs control,"[1]; HPAC #3, 50 mg/kg, 24h",99.9% and 99.8%
same,% inhibition of DUSP6 vs control,"[1]; HPAC #3, 50 mg/kg, 48h",99.3% and 98% and 97.1%
same,% inhibition of DUSP6 vs control,"[1]; HPAC #4, 3 mg/kg, 4h",8.1% and 58% and 27.9%
same,% inhibition of DUSP6 vs control,"[1]; HPAC #4, 3 mg/kg, 8h",54.7% and 65.2% and 84.3%
same,% inhibition of DUSP6 vs control,"[1]; HPAC #4, 3 mg/kg, 24h",0% and 40.8% and 37.2%
same,% inhibition of DUSP6 vs control,"[1]; HPAC #4, 3 mg/kg, 48h",0% and 22.7% and 33.9%
same,% inhibition of DUSP6 vs control,"[1]; HPAC #4, 10 mg/kg, 4h",93.6% and 96.1% and 97.9%
same,% inhibition of DUSP6 vs control,"[1]; HPAC #4, 10 mg/kg, 8h",98.9% and 99.6% and 97.1%
same,% inhibition of DUSP6 vs control,"[1]; HPAC #4, 10 mg/kg, 24h",80.3% and 56.7% and 91.1%
same,% inhibition of DUSP6 vs control,"[1]; HPAC #4, 10 mg/kg, 48h",8.1% and 47% and 59.6%
same,% inhibition of DUSP6 vs control,"[1]; HPAC #4, 25 mg/kg, 4h",99.6% and 97.7% and 93.3%
same,% inhibition of DUSP6 vs control,"[1]; HPAC #4, 25 mg/kg, 8h",99.9% and 99.4% and 99.8%
same,% inhibition of DUSP6 vs control,"[1]; HPAC #4, 25 mg/kg, 24h",99.3% and 99.2% and 99.6%
same,% inhibition of DUSP6 vs control,"[1]; HPAC #4, 25 mg/kg, 48h",97.6% and 96.7% and 87.9%
same,% inhibition of DUSP6 vs control,"[1]; HPAC #11, 0.3 mg/kg, 4h",0% and 41.7%
same,% inhibition of DUSP6 vs control,"[1]; HPAC #11, 0.3 mg/kg, 8h",9.1% and 10.7% and 76.7%
same,% inhibition of DUSP6 vs control,"[1]; HPAC #11, 0.3 mg/kg, 24h",0%
same,% inhibition of DUSP6 vs control,"[1]; HPAC #11, 0.3 mg/kg, 48h",0%
same,% inhibition of DUSP6 vs control,"[1]; HPAC #11, 1 mg/kg, 4h",48.3% and 77.5% and 97.1%
same,% inhibition of DUSP6 vs control,"[1]; HPAC #11, 1 mg/kg, 8h",86.3% and 83.8% and 49.4%
same,% inhibition of DUSP6 vs control,"[1]; HPAC #11, 1 mg/kg, 24h",4.9% and 0% and 23.3%
same,% inhibition of DUSP6 vs control,"[1]; HPAC #11, 1 mg/kg, 48h",24.6% and 0% and 42.3%
same,EC50,"[1]; Mus musculus, HPAC, read-out: EC50, inhibition of DUSP6 expression vs RMC-6236 concentration (PK/PD relationship)",135 nM
same,EC90,"[1]; Mus musculus, HPAC, read-out: EC90, inhibition of DUSP6 expression vs RMC-6236 concentration (PK/PD relationship)",925 nM
same,DUSP6 mRNA Expression (%),"[2]; Model Development Dataset, 25mg/kg_study8, 1 h",30.3376%
same,DUSP6 mRNA Expression (%),"[2]; Model Development Dataset, 25mg/kg_study8, 2 h",11.6899%
same,DUSP6 mRNA Expression (%),"[2]; Model Development Dataset, 25mg/kg_study8, 8 h",1.524%
same,DUSP6 mRNA Expression (%),"[2]; Model Development Dataset, 25mg/kg_study8, 24 h",8.817%
same,DUSP6 mRNA Expression (%),"[2]; Model Development Dataset, 25mg/kg_study8r (doses every 24 h, 0-[…]), 240 h",3.766%
same,DUSP6 mRNA Expression (%),"[2]; Model Development Dataset, 40mg/kg_study8, 1 h",65.2423%
same,DUSP6 mRNA Expression (%),"[2]; Model Development Dataset, 40mg/kg_study8, 2 h",13.6285%
same,DUSP6 mRNA Expression (%),"[2]; Model Development Dataset, 40mg/kg_study8, 8 h",4.661%
same,DUSP6 mRNA Expression (%),"[2]; Model Development Dataset, 40mg/kg_study8, 24 h",3.474%
same,DUSP6 mRNA Expression (%),"[2]; Model Development Dataset, 40mg/kg_study8r (doses every 24 h, 0-[…]), 240 h",0.8569%
same,DUSP6 mRNA Expression (%),"[2]; Model Validation Dataset, 10mg/kg_study6, 1 h",45.187%
same,DUSP6 mRNA Expression (%),"[2]; Model Validation Dataset, 10mg/kg_study6, 8 h",5.053%
same,DUSP6 mRNA Expression (%),"[2]; Model Validation Dataset, 10mg/kg_study6, 24 h",13.225%
same,DUSP6 mRNA Expression (%),"[2]; Model Validation Dataset, 10mg/kg_study6, 48 h",62.867%
same,DUSP6 mRNA Expression (%),"[2]; Model Validation Dataset, 25mg/kg_study6, 1 h",48.7936%
same,DUSP6 mRNA Expression (%),"[2]; Model Validation Dataset, 25mg/kg_study6, 8 h",5.7726%
same,DUSP6 mRNA Expression (%),"[2]; Model Validation Dataset, 25mg/kg_study6, 24 h",9.122%
same,DUSP6 mRNA Expression (%),"[2]; Model Validation Dataset, 25mg/kg_study6, 48 h",14.7114%
same,DUSP6 mRNA Expression (%),"[2]; Model Validation Dataset, 25mg/kg_study6, 72 h",12.5199%
same,DUSP6 mRNA Expression (%),"[2]; Model Validation Dataset, 50mg/kg_study6, 1 h",16.7798%
same,DUSP6 mRNA Expression (%),"[2]; Model Validation Dataset, 50mg/kg_study6, 8 h",5.52%
same,DUSP6 mRNA Expression (%),"[2]; Model Validation Dataset, 50mg/kg_study6, 24 h",5.873%
same,DUSP6 mRNA Expression (%),"[2]; Model Validation Dataset, 50mg/kg_study6, 48 h",10.9912%
same,DUSP6 mRNA Expression (%),"[2]; Model Validation Dataset, 50mg/kg_study6, 72 h",10.0613%
same,EC50,"[2]; Mus musculus, NCI-H441, read-out: EC50, inhibition of DUSP6 expression vs RMC-6236 concentration (PK/PD relationship)",117 nM
same,EC90,"[2]; Mus musculus, NCI-H441, read-out: EC90, inhibition of DUSP6 expression vs RMC-6236 concentration (PK/PD relationship)",1120 nM
same,% inhibition of DUSP6 vs control,"[2]; study NCI-H441#6, 10 mg/kg, 8h",94.3996% and 97.36% and 93.0812%
same,% inhibition of DUSP6 vs control,"[2]; study NCI-H441#6, 10 mg/kg, 24h",92.8123% and 75.0577% and 92.455%
same,% inhibition of DUSP6 vs control,"[2]; study NCI-H441#6, 25 mg/kg, 8h",92.2964% and 95.8141% and 94.5716%
same,% inhibition of DUSP6 vs control,"[2]; study NCI-H441#6, 25 mg/kg, 24h",90.5813% and 91.1816% and 90.8706%
same,% inhibition of DUSP6 vs control,"[2]; study NCI-H441#6, 25 mg/kg, 48h",88.2424% and 92.0524% and 75.571%
same,% inhibition of DUSP6 vs control,"[2]; study NCI-H441#6, 50 mg/kg, 8h",94.9176% and 94.1618% and 94.3607%
same,% inhibition of DUSP6 vs control,"[2]; study NCI-H441#6, 50 mg/kg, 24h",95.6815% and 94.6463% and 92.0524%
same,% inhibition of DUSP6 vs control,"[2]; study NCI-H441#6, 50 mg/kg, 48h",89.9053% and 88.838% and 88.2831%
same,% inhibition of DUSP6 vs control,"[2]; study NCI-H441#6, 100 mg/kg, 8h",96.2144% and 97.8257% and 94.7565%
same,% inhibition of DUSP6 vs control,"[2]; study NCI-H441#6, 100 mg/kg, 24h",96.5645% and 97.2858% and 99.0371%
same,% inhibition of DUSP6 vs control,"[2]; study NCI-H441#6, 100 mg/kg, 48h",97.3783% and 95.7557% and 95.9427%
same,% inhibition of DUSP6 vs control,"[2]; study NCI-H441#8, 25 mg/kg, 2h",93.3108% and 86.9874% and 84.6322%
same,% inhibition of DUSP6 vs control,"[2]; study NCI-H441#8, 25 mg/kg, 8h",99.2306% and 96.8685% and 99.3302%
same,% inhibition of DUSP6 vs control,"[2]; study NCI-H441#8, 25 mg/kg, 24h",93.9294% and 85.711% and 93.9083%
same,% inhibition of DUSP6 vs control,"[2]; study NCI-H441#8, 40 mg/kg, 2h",77.4222% and 82.1626% and 99.5296%
same,% inhibition of DUSP6 vs control,"[2]; study NCI-H441#8, 40 mg/kg, 8h",94.9481% and 94.7152% and 96.3527%
same,% inhibition of DUSP6 vs control,"[2]; study NCI-H441#8, 40 mg/kg, 24h",94.2767% and 98.3791% and 96.9223%
same,% inhibition of DUSP6 vs control,"[2]; study NCI-H441#10, 0.3 mg/kg, 8h",46.2112% and 70.874% and 74.5563%
same,% inhibition of DUSP6 vs control,"[2]; study NCI-H441#10, 0.3 mg/kg, 48h",38.4266% and 52.8484% and 73.0122%
same,% inhibition of DUSP6 vs control,"[2]; study NCI-H441#10, 1 mg/kg, 48h",52.6847% and 48.936% and 65.7214%
same,% inhibition of DUSP6 vs control,"[2]; study NCI-H441#10, 10 mg/kg, 8h",85.6375% and 96.6614% and 94.5007%
same,% inhibition of DUSP6 vs control,"[2]; study NCI-H441#10, 10 mg/kg, 24h",85.7861% and 76.2602% and 81.9462%
same,% inhibition of DUSP6 vs control,"[2]; study NCI-H441#10, 10 mg/kg, 48h",44.699% and 49.9869% and 60.6243%
same,% inhibition of DUSP6 vs control,"[2]; study NCI-H441#13, 0.3 mg/kg, 8h",54.8539% and 55.936% and 78.3465%
same,% inhibition of DUSP6 vs control,"[2]; study NCI-H441#13, 1 mg/kg, 2h",47.4169% and 56.5427% and 69.4833%
